How the values were obtained:
[1] = molecular target: T1, HDAC2 (Homo sapiens, UniProt Q92769); assay: in vitro HDAC enzyme assay with recombinant enzyme; settings: from biochemical IC50 values, recombinant enzymes
T1 construct: purchased BPS Biosciences
Text: Among class I HDACs, Hdac1,2 share a 50% sequence homology with Hdac3. Therefore, we first determined the selectivity of ACY-957 towards HDAC1 and HDAC2 in in vitro enzyme assays using recombinant enzymes.

[2] = system: Karpas-422 cells; assay: ChIP of H3K27ac and H3K27me3 at BMF and TP63 promoters; type: cell-based, human; settings: 2 μM, vs DMSO
Text: RNA samples obtained from three independent treatments were subjected to RiboZero stranded sequencing using the Illumina Hiseq2000 sequencer. RNA-seq data from ACY-957-treated samples was compared to the publically available RNA seq data set from Karpas-422 cells following GSK126 treatment of Karpas-422 cells. Venn diagrams were made using the R package VennDiagram. Genes with adjusted p-value<0.05 and absolute log 2 fold change>0.585 were used in this analysis. (B): Pathway analysis of the 71 commonly up regulated genes was performed. Screen shots of the pathways that were misregulated in both ACY-957-treated Karpas-422 cells and in Karpas-422 cells following GSK-126 treatment. […] (C): Base read depth, scaled per million mapped reads, for BMF and Tp63 genes in DMSO- or ACY-957-treated Karpas-422 cells. […] Fold-increase as determined by real-time PCR analysis in H3K27ac relative to total H3 occupancy was calculated for both ACY-957-treated and DMSO-treated samples and the relative fold-enrichment of H3K27ac and […] in ACY-957-treated samples was calculated following normalization to DMSO-treated samples. The data represented an average fold-change calculated from three independent experiments+/−standard error. *p=0.003 and **p=0.004 (E): ChIP analysis of HDAC1 and HDAC2 at the promoters of BMF and Tp63 genes was performed in Karpas-422 cells. […]

[3] = system: Karpas-422 and SUDHL4 cells; assay: Western blot of histone acetylation marks in whole cell lysates; settings: vs DMSO
Procedure: Compounds were diluted in DMSO to 50 fold the final concentration and a ten point three fold dilution series was made. The compounds were diluted in assay buffer (50 mM HEPES, pH 7.4, 100 mM KCl, 0.001% Tween-20, 0.05% BSA, 20 μM tris(2-carboxyethyl)phosphine) to 6 fold their final concentration. The HDAC enzymes (purchased from BPS Biosciences) were diluted to 1.5 fold their final concentration in assay buffer. The tripeptide substrate (synthesized in house) and trypsin at 0.05 μM final concentration were diluted in assay buffer at 6 fold their final concentration. Five μl compounds and 20 μl of enzyme were added to wells of a black, opaque 384 well plate in duplicate. Enzyme and compound were incubated together at room temperature for 10 minutes. Five μl of substrate was added to each well, the plate was shaken for 60 seconds and placed into a Victor 2 microtiter plate reader. The development of fluorescence was monitored for 60 min and the linear rate of the reaction was calculated. The IC50 was determined using Graph Pad Prism by a four parameter curve fit.

[4] = system: Karpas-422 and SUDHL4 cells; assay: Western blot of acid-extracted histones (H4K91ac, H4K16ac, monoubiquitinated H4); type: cell-based, human; settings: for monoubiquitinated form of H4 after doxorubicin: 48 h pretreatment, then 50 nM doxorubicin 4 h or 8 h
Procedure: Western analysis was performed with anti-BBAP antibody and histone H3 was used as a loading control. Whole cell lysate of HeLa cells was prepared following transfection of cells with either non-targeting or two different BBAP siRNAs. These extracts served as negative controls for the signal from BBAP antibody. (B): SUDHL4 and Karpas-422 cells were treated with DMSO or 2 μM ACY-957 for 48 hr prior to chromatin extraction. Western analysis was done using anti-H4K91ac or anti-H4K16ac and histone H4 served as a loading control. (C): HeLa cells were transfected with either wild type H4 or H4K91R mutant constructs for 65 hours prior to extraction of histones by trichloroacetic acid. Western blot analysis was performed with anti-FLAG antibody. (D): SUDHL4 cells and Karpas-422 were treated with DMSO or 2 μM ACY-957 for 24 hours and histones were extracted by TCA precipitation. Western blotting with anti-H4 was performed to detect H4 and monoubiquitylated H4. (E): SUDHL4 cells and Karpas-422 were treated with DMSO or 2 μM ACY-957 for 48 hours and treated with 50 nM doxorubicin for 4 hr or 8 hr prior to histone extraction. Histones were extracted by TCA precipitation and western blotting with anti-H4 was performed to detect H4 and monoubiquitinated H4.
Histone Extraction by Trichloroacetic Acid. DLBCL cells were treated with ACY957 in 25 cm^2 flasks. Following treatment, cells were pelleted, washed with PBS and the pellet was re-suspended in 400 μl of lysis buffer with protease inhibitors (200 μl 0.5M HEPES.KOH, pH 7.9, 15 μl 1M MgCl2, 50 μl 2M KCl, 50 μl 0.1M DTT, 100 μl 0.4M NEM, 10 μl 1000× Aprotinin/Leupeptin, 10 μl 1000× Pepstatin A, and water to a total volume of 10 m L plus Roche protease inhibitor cocktail). To the cell suspension, a final concentration of 0.2M sulfuric acid was added and samples were sonicated twice using the Fisher FB120 sonicator at amplitude of 50% and with 5 pulses. After sonication, proteins were extracted for 30 minutes at 4° C. with end over end rotation. Samples were then centrifuged at 13,000 rpm for 10 minutes at 4° C. and histones were precipitated with a 20% final concentration of trichloroacetic acid and incubated on ice for 30 minutes or moved directly to −80° C. overnight. Following precipitation, samples were centrifuged again for 10 minutes and the resulting pellet was washed with cold acidified acetone (acetone+0.05N HCl). The histone pellets were centrifuged at the same settings but for 5 minutes then washed again with cold acetone. After this wash the pellets were centrifuged for another 5 minutes and the acetone was discarded. Pellets were dried in an incubator at 37° C. for 5 minutes then re-suspended in 50 μl 2×SDS sample buffer+β-mercaptoethanol and 8 μl 1M Tris HCl pH 8 to neutralize. The samples were then boiled for 8 minutes at 95° C. and if there was still visible pellet they were either boiled longer, sonicated, had more sample buffer added or a combination thereof.
We treated Karpas-422 or SUDHL4 cells with DMSO or ACY-957 for 48 h prior to the incubation for 4 h or 8 h in the presence of doxorubicin.

[5] = system: Karpas-422 and SUDHL4 cells; assay: Western blot of chromatin extracts for H3K27ac and H3K27me3; type: cell-based, human
Procedure: Western blot analysis was done with anti-H3K27ac, H3K27me3 or EZH2 and histone H3 served as a loading control.
Following DMSO or ACY-957 treatment, cells were exposed to a 5Gy dose of ionizing radiation and allowed to recover for 30 minutes prior to chromatin extraction. Western blots were performed with anti-H3K27ac or anti-H3K27me3 with histone H3 serving as a loading control. (B-E): Karpas-422, SUDHL4, WSU-DLCL2 and HeLa cells were laser micro-irradiated and allowed to recover for 15 minutes before fixation and immunofluorescence staining with anti-γH2AX and anti-H3K27me3. Subsequently, the percentage of cells with H3K27me3 lines that co-localized with γH2AX were counted. Merge is the overlay of γH2AX and H3K27me3 pictures. (F-I): At least 100 cells with γH2AX lines were counted in each experiment. The quantitation shown was the average calculated from independent experiments+/−standard error. Quantitation from five, seven, five and six independent experiments performed in Karpas-422, SUDHL4, WSU-DLCL2 and HeLa cells, respectively, was used in the graph shown in this figure. (J): Karpas-422 cells were micro-irradiated with a laser and allowed to recover for 15 minutes before fixation and immunofluorescence staining was performed with anti-γH2AX and anti-H3K27ac.
Protein Preparation and Western Blot Analysis.
The histone H3K27 residue was subjected to reversible acetylation and methylation. […] We also treated cells with the second EZH2 inhibitor, GSK126 alone, or combined with ACY-957 (ACY-957+GSK126). […] Cells were treated for 48 h prior to preparing chromatin extracts for Western analysis using antibodies recognizing H3K27ac or H3K27me3.
We first examined whether inhibiting HDAC1,2 activity induced any change in global H3K27ac or H3K27me3 on chromatin following DNA damage and during DNA repair. SUDHL4 or Karpas-422 cells with or without exposure to ionizing radiation (IR) were initially treated with DMSO or ACY-957 for 48 hr. Chromatin extracts were prepared from these cells following a 30 min recovery period (the repair phase) and changes in histone modifications were examined by Western blotting.

T1 sequence (Q92769 whole entry): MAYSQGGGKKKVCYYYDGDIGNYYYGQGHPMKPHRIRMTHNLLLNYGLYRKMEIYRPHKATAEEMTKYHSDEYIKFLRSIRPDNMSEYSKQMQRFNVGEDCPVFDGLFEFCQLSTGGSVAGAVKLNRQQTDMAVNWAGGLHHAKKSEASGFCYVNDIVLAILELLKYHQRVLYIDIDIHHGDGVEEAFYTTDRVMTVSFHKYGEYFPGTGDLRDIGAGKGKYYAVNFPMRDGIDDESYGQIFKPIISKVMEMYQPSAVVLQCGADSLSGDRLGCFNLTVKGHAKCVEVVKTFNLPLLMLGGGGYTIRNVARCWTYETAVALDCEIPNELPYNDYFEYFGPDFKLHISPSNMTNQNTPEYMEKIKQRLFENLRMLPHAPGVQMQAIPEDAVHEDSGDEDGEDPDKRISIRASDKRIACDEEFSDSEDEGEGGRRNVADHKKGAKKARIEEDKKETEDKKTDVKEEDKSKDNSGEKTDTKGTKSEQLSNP

`Nc1ccc(-c2cccs2)cc1NC(=O)c1ccc2nc(N3CCNCC3)ccc2c1` [ACY-957, N-(2-amino-5-(thiophen-2-yl)phenyl)-2-(piperazin-1-yl)quinoline-6-carboxamide] was tested, and the “selectivity for HDAC2 when compared to HDAC3” value [1] was 72 fold, the “H3K27ac at promoter regions of TP63 and BMF” value [2] was “increase in H3K27ac levels at the promoter regions of both TP63 and BMF genes” and the “H3K27me3 at TP63 and BMF promoters” value [2] was “concomitant decrease in H3K27me3 was not observed”. The H3K23ac levels ([3]; 2 μM, 24 hours) was “increased H3K23ac levels”, the “H3K9,K14ac and H4K5ac levels” value ([3]; increasing amounts, 24 hr) was “concentration-dependent increase” and the “global H4K16ac levels” value ([4]; 2 μM, 48 hr) was “increased global levels of H4K16ac”. The “global H4K91ac levels” value ([4]; 2 μM, 48 hr) was “increased global H4K91ac levels”, the “global monoubiquitinated form of H4” value ([4]; 30 h or 48 h, without doxorubicin) was “no change in global levels of the slow migrating monoubiquitinated form of H4” and the “monoubiquitinated form of H4 after doxorubicin” value [4] was “significant reduction to complete absence of the slow migrating monoubiquitinated form of H4”. The “monoubiquitinated form of H4 after doxorubicin” value ([4]; listed as ACY957) was “decrease in the BBAP-mediated H4K91 monoubiquitination”, the “global H3K27ac levels” value ([5]; 48 h, chromatin extracts) was “robust increase in global H3K27ac levels” and the “global H3K27me3 levels” value ([5]; 48 h, chromatin extracts) was “remained unchanged”. For the same compound, the “global H3K27me3 levels on chromatin” value ([5]; 48 hr, 30 min recovery from IR) was “concomitant decrease in global H3K27me3 levels on chromatin was not observed” and the “global H3K27ac levels on chromatin” value ([5]; 48 hr, with or without exposure to IR) was “increased”.
